In patent US11098003B2, “Control and repellency of bed bugs” (BEDOUKIAN RESEARCH, INC., priority 2012, dated 2021):

System: bed bugs
Test: Petri dish choice test, treated vs. untreated paper discs: repellency (avoidance) of bed bugs
Assay type: in vivo, Cimex species
Details: 1 ml acetone solution on paper disc, distribution at 2 hours post-treatment, 5 replicates of 10 bed bugs
Protocol: Two semicircle discs of paper, one treated (1 ml of acetone solution of each compound was applied to each disc) and one untreated (1 ml of acetone only), were placed in the lid of a Petri dish. […] Five replicates of 10 bed bugs were released into the centers of the lids and were thus presented with a choice of treated vs. untreated substrate (or untreated vs. untreated in the control arenas). The distribution of the bed bugs was recorded at 2 hours post-treatment. Paired t-tests were conducted for each treatment to ascertain whether or not there was a statistically significant difference in the numbers of bed bugs on the treated vs. untreated discs.

Methyl apritol
Repellency/Avoidance (0.15% compound): 74% | Repellency/Avoidance (0.2% compound): 88%

CCCCCC1C(CC(=O)OC)CCC1(OC)OC (stereo not shown) [Methyl dihydrojasmonate dimethyl acetal]
Repellency/Avoidance (0.2% compound): 90%

CC1CCC(C(C)(C)O)C(O)C1 (stereo not shown) [Para Menthane-3,8-diol (PMD), Para Menthane-3,8-diol, reference compound]
Repellency/Avoidance (0.15% compound): 42% | Repellency/Avoidance (0.2% compound): 70%

Methyl dihydrojasmonate amide
Repellency/Avoidance (concentration not given): 28%

CCCCCCCCCC1(C)CCC(=O)O1 (stereo not shown) [gamma Methyl tridecalactone]
Repellency/Avoidance (0.2% compound): 72%

CCCCCCCCCCCC1CCC(=O)O1 (stereo not shown) [gamma-Pentadecalactone]
Repellency/Avoidance (1% compound): 92%

CCCCCCCCCC1CCC(=O)O1 (stereo not shown) [gamma-Tridecalactone]
Repellency/Avoidance (0.5% compound): 86% | Repellency/Avoidance (1% compound): 96%

Dihydrojasmolactone
Repellency/Avoidance (0.2% compound): 84%

CCCCCC1C(=O)CCC1CC(=O)O (stereo not shown) [Dihydrojasmonic Acid]
Repellency/Avoidance (0.2% compound): 78%

CCN(CC)C(=O)c1cccc(C)c1 [DEET, N,N-Diethyl-m-toluamide, reference compound]
Repellency/Avoidance (0.09% compound): 66% | Repellency/Avoidance (0.2% compound): 74%

CCCCCC1C(O)CCC1CC(=O)OC (stereo not shown) [Methyl dihydrojasmolate]
Repellency/Avoidance (0.15% compound): 58% | Repellency/Avoidance (0.2% compound): 82%

CCCCCCCCC1CCC(=O)O1 (stereo not shown) [gamma-Dodecalactone]
Repellency/Avoidance (0.2% compound): 82%

CCCCCC1C(O)CCC1CC(=O)OCC=C(C)C (stereo not shown) [Prenyl dihydrojasmolate]
Repellency/Avoidance (0.2% compound): 48%

CCCCCCCCCCCCCC1CCC(=O)O1 (stereo not shown) [gamma-Heptadecalactone]
Repellency/Avoidance (2% compound): 68%
